Test results published in patent publication US8609608B2, “Antimicrobial peptides” (C3 Jian, Inc., priority 2007, dated 2013).
Read-outs that look alike come from different tables or passages of the source. Where no end group is shown, it is not given here.

Tests used:
[1] = test system: E. faecalis
[2] = test system: P. aeruginosa; test: MIC against P. aeruginosa; format: cell-based, Pseudomonas aeruginosa
[3] = test system: L. casei
[4] = test system: S. aureus
[5] = test system: clinical isolates of S. mutans; format: cell-based, Streptococcus mutans
Procedure: S. mutans clinical isolates UA140 (32), UA159 (1), T8 (33), ATCC 25175, GS5 (Kuramitsu and Ingersoll (1977) Infect Immun., 17: 330-337), and all gram-positive strains listed below (see Table 9) were grown under anaerobic conditions in brain heart infusion or Todd-Hewitt (TH) broth (Difco) overnight at 37° C. prior to use (Eckert et al. (2006) Antimicrob. Agents Chemother. 50: 3651-3657). Veillonella atypica PK1910 was grown in Veillonella medium (Egland et al. (2004) Proc. Natl. Acad. Sci., USA, 101: 16917-16922). All strains were grown in an anaerobic atmosphere of 80% N2, 10% CO2, and 10% H2.
Antibacterial growth inhibition assays were performed using sterile 96-well plates in a final volume of 100 μl, TH or Veillonella medium as described previously (Qi et al. (2005) FEMS Microbial Lett. 251: 321-326). Briefly, bacterial cells were grown overnight to an optical density at 600 nm of 0.75 to 0.8 (corresponding to 1×10^8 CFU/ml) and then diluted to 1×10^5 CFU/ml in broth and aliquoted onto plates. An appropriate volume of peptide stock solution (5 to 20 mg/ml, in water or methanol, depending on solubility) was then added to the first column of the plate to give 500 μg/ml or 512 μg/ml, followed by serial 1:2 dilutions across the plate to give wells containing peptides ranging from 500 to 1.95 μg/ml or 512 to 2 μg/ml. Methanol alone was also added to control for the effects of the solvent. The plates were then incubated at 37° C. under anaerobic conditions for 16 to 20 h without shaking, and the MIC was determined as the concentration of peptide present in the last clear well after visual inspection. Up to 5% (vol/vol) methanol was found not to be antimicrobial (data not shown). MICs were determined in triplicate for all bacteria.

Row | Substance | MIC E. faecalis [1] [µg/mL] | MIC P. aeruginosa [2] [µg/mL] | MIC L. casei [3] [µg/mL] | MIC S. aureus [4] [µg/mL] | MIC S. mutans ([5]; clinical isolates of) [µg/mL] | further results
1 | FKAHIRFKLRVKFHF [Peptide S3L8-10, FKAHIRFKLRVKFHF] | >125 | >125 | 8 | >125 | – | –
2 | WIWKHKFLHRHFLF [Peptide S3L8-12, WIWKHKFLHRHFLF] | 125 | >125 | >62.5 | >125 | 125 | –
3 | KFVKLILAY-NH2 [Peptide S6L1-5, KFVKLI LAY*] | – | 92 | – | – | 32 | activity against S. mutans by MIC, in words [5]: moderate activity; MIC S. aureus ([4]; Killing Peptide Library #7): >500 µg/mL
4 | FRHRFRHRF [Peptide S3L8-34, FRHRFRHRF] | >125 | >125 | >62.5 | >125 | >125 | –
5 | IKVFAKQKY-NH2 [Peptide S6L1-7, IKVFAKQKY*] | – | >500 | – | – | >500 | MIC S. aureus ([4]; Killing Peptide Library #7): >500 µg/mL
6 | LHIHAHFHVHIHLHF [Peptide S3L8-8, LHIHAHFHVHIHLHF] | >125 | >125 | >62.5 | >125 | – | –
7 | VGKCVKLLY-NH2 [Peptide S6L1-4, VGKCVKLLY*] | – | 250 | – | – | 125 | MIC S. aureus ([4]; Killing Peptide Library #7): 500 µg/mL
8 | LVHKLILRHLLF [Peptide S3L8-22, LVHKLILRHLLF] | >125 | >125 | >62.5 | >125 | >125 | –
9 | FLHKHVLRHRIVF [Peptide S3L8-14, FLHKHVLRHRIVF] | >125 | >125 | >62.5 | >125 | – | –
10 | LRHRLRHRLIF [Peptide S3L8-31, LRHRLRHRLIF] | 125 | >125 | >62.5 | >125 | >125 | –
11 | LRLFLRF [Peptide S3L8-43, LRLFLRF] | >125 | >125 | >62.5 | >125 | >125 | –
12 | VLRHLFRHRIVF [Peptide S3L8-21, VLRHLFRHRIVF] | 93.5 | >125 | >62.5 | >125 | 60 | –
13 | VLKHVIAHKRLF [Peptide S3L8-25, VLKHVIAHKRLF] | >125 | >125 | >62.5 | >125 | >125 | –
14 | LRLFLRWLF [Peptide S3L8-39, LRLFLRWLF] | 32 | >125 | 16 | 16 | 16 | –
15 | WRIHLRARLHVKFRF [Peptide S3L8-4, WRIHLRARLHVKFRF] | 8 | >125 | 8 | 62.5 | – | –
16 | FLFRHRFRHRLVF [Peptide S3L8-28, FLFRHRFRHRLVF] | 62.5 | >125 | >62.5 | >125 | 60 | –
17 | VFIVWVHKHVLF [Peptide S3L8-2, VFIVWVHKHVLF] | >125 | >125 | >62.5 | >125 | – | –
18 | FHIKFRVHLKVRFHF [Peptide S3L8-6, FHIKFRVHLKVRFHF] | >125 | >125 | 8 | >125 | – | –
19 | VFKRVLIHKLIF [Peptide S3L8-23, VFKRVLIHKLIF] | 32 | >125 | 62.5 | >125 | >125 | –
20 | LKQLKAGIY-NH2 [Peptide S6L1-3, LKQLKAGIY*] | – | 250 | – | – | >500 | MIC S. aureus ([4]; Killing Peptide Library #7): >500 µg/mL
21 | LRIHARFKVHIRLKF [Peptide S3L8-5, LRIHARFKVHIRLKF] | 12 | >125 | 8 | >125 | 60 | –
22 | LRLFLRHRF [Peptide S3L8-41, LRLFLRHRF] | 62.5 | >125 | >62.5 | >125 | 16 | –

Row | Substance | MIC E. faecalis [1] [µg/mL] | MIC P. aeruginosa [2] [µg/mL] | MIC L. casei [3] [µg/mL] | MIC S. aureus [4] [µg/mL] | MIC S. mutans ([5]; clinical isolates of) [µg/mL] | further results
23 | FKFLFKHKF [Peptide S3L8-40, FKFLFKHKF] | 62.5 | >125 | 62.5 | >125 | 30 | –
24 | FIRKFLFKHLF [Peptide S3L8-26, FIRKFLFKHLF] | 24 | >125 | 16 | 62.5 | 16 | –
25 | VLIRILVRVIF [Peptide S3L8-33, VLIRILVRVIF] | 16 | >125 | 16 | 125 | >125 | –
26 | KLVKLVFLY-NH2 [Peptide S6L1-6, KLVKLVFLY*] | – | >500 | – | – | 125 | MIC S. aureus ([4]; Killing Peptide Library #7): >500 µg/mL
27 | WRWRARWRWRLRWRF [Peptide S3L8-3, WRWRARWRWRLRWRF] | 8 | >125 | 16 | 16 | 4 | –
28 | LRLRHRVLF [Peptide S3L8-37, LRLRHRVLF] | >125 | >125 | >62.5 | >125 | >125 | –
29 | VFLHRHVIKHKLVF [Peptide S3L8-13, VFLHRHVIKHKLVF] | 125 | >125 | >62.5 | >125 | – | –
30 | LKQFVHFIHRF-NH2 [Peptide B-41, LKQFVHFIHRF*] | – | – | – | – | – | activity against S. mutans by MIC, in words [5]: active but to a lesser degree than B-33 or B-34; MIC ([5]; clinical isolates of): 32 µg/mL
31 | AKRLLKVLKRF-NH2 [Peptide B-62, AKRLLKVLKRF*] | – | – | – | – | – | MIC ([5]; clinical isolates of): 16 to 32 µg/mL
32 | RALHEAKEALK-OH [Peptide B-48, RALHEAKEALK] | – | – | – | – | – | MIC ([5]; clinical isolates of): >250 µg/mL
33 | VKNLAELVHRF-NH2 [Peptide B-45, VKNLAELVHRF*] | – | – | – | – | – | MIC ([5]; clinical isolates of): >250 µg/mL
34 | FHVKIHFRLHVKFHF [Peptide S3L8-7, FHVKIHFRLHVKFHF] | >125 | >125 | 16 | >125 | – | –
35 | KLFKRWKHLFR-OH [Peptide B-35, KLFKRWKHLFR] | – | – | – | – | – | MIC ([5]; clinical isolates of): 31.25 to 125 µg/mL
36 | LKQKLKILF-NH2 [Peptide S6L1-2, LKQKLK1LF*] | – | – | – | – | – | MIC P. aeruginosa ([2]; Killing Peptide Library #7): >500 µg/mL; MIC S. mutans ([5]; Killing Peptide Library #7): 125 µg/mL; MIC S. aureus ([4]; Killing Peptide Library #7): >500 µg/mL
37 | KLKKLLKKLKKLLK [α-5, KLKKLLKKLKKLLK] | – | – | – | – | – | MIC ([5]; clinical isolates of): 8 µg/mL
38 | IKTLLHFFQRF-NH2 [Peptide B-54, IKTLLHFFQRF*] | – | – | – | – | – | activity against S. mutans by MIC, in words [5]: active but to a lesser degree than B-33 or B-34; MIC ([5]; clinical isolates of): 32 to 62.5 µg/mL
39 | RRWWRRK [Peptide 3C-2, RRWWRRK] | – | – | – | – | – | MIC ([5]; clinical isolates of): 125 µg/mL
40 | RFRHFQERY-NH2 [Peptide S6L1-8, RFRHFQERY*] | – | >500 | – | – | 64 | MIC S. aureus ([4]; Killing Peptide Library #7): 125 µg/mL
41 | KLKKLLKHLHHLLH-NH2 [α-12, KLKKLLKHLHHLLH*] | – | – | – | – | – | MIC ([5]; clinical isolates of): 8 µg/mL
42 | VKTLLHIFQRF-NH2 [Peptide B-42, VKTLLHIFQRF*] | – | – | – | – | – | MIC ([5]; clinical isolates of): 31.25 to 125 µg/mL
43 | RVLQEIKQILK-OH [Peptide B-44, RVLQEIKQILK] | – | – | – | – | – | MIC ([5]; clinical isolates of): >250 µg/mL
44 | AQAAKQAAKAAKQF-NH2 [α-8, AQAAKQAAKAAKQF*] | – | – | – | – | – | activity against S. mutans by MIC, in words [5]: inactive; MIC ([5]; MIC range or value from all S. mutans isolates tested, binary, alpha-helix and RW libraries): >125 µg/mL
